Data published in patent publication US11242327B2, “Analgesic compounds” (RECURIUM IP HOLDINGS, LLC, priority 2017, dated 2022).

Key:
COX-1 = COX-1 (Homo sapiens, UniProt P23219); test: NSAIDS and Opioid Receptor Test: COX-1; assay type: biochemical; details: 200 μM
Experimental: (§1) Compounds were screened as DMSO solutions at 10 μM, 100 μM, or 200 μM and values represent percent inhibition of control-specific binding. […] As NSAID and opioid mechanisms of action are precluded, a person of ordinary skill in the art understands that undesirable side effects associated with inhibition of COX receptors in NSAIDs and activation of opiate receptors in opioids can be avoided by compounds described herein. Furthermore, opioids are known to lose their analgesic potency after to continued administration. (See Benyamin, et al. “Opioid Complications and Side Effects” Pain Physician 11 (2008): S105-S120). As the data indicates compounds described herein have a different mechanism action compared to opioids, a person of ordinary skill in the art would appreciate that compounds described herein would not be expected to lose their analgesic potency like opioids after continued admininistration.

COX-2 = molecular target: T1, COX-2 (Homo sapiens, UniProt P35354); test: NSAIDS and Opioid Receptor Test: COX-2; assay type: biochemical; details: 200 μM
T1 sequence (P35354 18-604): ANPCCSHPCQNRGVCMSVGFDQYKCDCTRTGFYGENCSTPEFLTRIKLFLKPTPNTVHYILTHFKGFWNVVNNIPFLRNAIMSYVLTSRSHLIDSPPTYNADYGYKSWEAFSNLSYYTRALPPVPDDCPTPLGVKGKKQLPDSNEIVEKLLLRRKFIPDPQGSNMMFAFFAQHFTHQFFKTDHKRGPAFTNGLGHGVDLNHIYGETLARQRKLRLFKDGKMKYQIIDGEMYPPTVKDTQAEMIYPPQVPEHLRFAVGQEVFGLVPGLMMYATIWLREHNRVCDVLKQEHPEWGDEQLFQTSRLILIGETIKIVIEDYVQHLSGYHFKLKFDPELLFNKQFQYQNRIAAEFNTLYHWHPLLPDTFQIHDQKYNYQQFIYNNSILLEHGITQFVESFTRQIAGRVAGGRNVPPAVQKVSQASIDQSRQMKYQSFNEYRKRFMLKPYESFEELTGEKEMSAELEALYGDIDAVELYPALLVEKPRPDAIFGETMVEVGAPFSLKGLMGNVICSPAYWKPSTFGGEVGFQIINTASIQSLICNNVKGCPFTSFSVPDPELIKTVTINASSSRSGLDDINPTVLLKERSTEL
Experimental: as §1

adult male C57BL/6 mice = test: Conditioned Place Preference (Abuse) Test; assay type: in vivo, mouse; details: mouse, in vivo, ip
From the text: A conditioned place preference (CPP) model was used to assess the reward properties of compounds of formulae (Ie), or a pharmaceutically acceptable salt of any of the foregoing, in adult male C57BL/6 mice. The CPP model apparatus consisted of a Plexiglas© test unit having three (A, B, C) compartments (9 cm×9 cm×16 cm) configured to allow access to all chambers. Compartments A and C had textually distinct flooring and wall marking. Mice were placed in the middle compartment with free access to the other compartments. On day 1 and 2, the “naive chamber preference” was assessed by placing the animal in the middle chamber twice a day (AM and PM) for 30 min on two consecutive days, with the chamber showing the greatest residence time being called the “preferred chamber”. On “drug pairing days” (days 5, 6, 7 and 8) mice were injected IP with vehicle (50 mM citric acid) in the AM in the preferred chamber and the drug/vehicle in the afternoon in the non-preferred chamber for four consecutive days. On the morning of day 9 (the day after the last drug pairing), the “drug chamber preference” was assessed by placing the mouse (absent any injection) in the middle chamber, with free access to all chambers for 30 minutes. This was repeated five days later (day fourteen), with no intervening drug treatment.
The time spent on days 9 and 14 (e.g. […] respectively after the last drug treatment) in the drug associated chamber was the test datum and is represented in FIG. 1. […] In contrast, there was no increase in the non-preferred chamber residence time when the least-preferred chamber was paired with saline, APAP or test compounds 2 or 28 on either days 9 or 14, or days 0 or 5.

male Sprague-Dawley rats = test: Post-Incisional (Brennan) Pain Test; assay type: in vivo; details: rat, oral; for cumulative pain score, 4 h: 4 h post-dosing; for cumulative pain score, 24 h: 24 h post-dosing
Experimental: Incisional pain was induced in non-fasted male Sprague-Dawley rats weighing 180-300 g by making a 1-cm plantar incision in the left hind paw and is designed to mimic pain and sensitivity similar to what is reported by patients after surgery. Dosing occurred at the time of incision and spontaneous pain was measured 4 and 24 hours post-dosing using a cumulative pain score. The unrestrained animals were placed on a metal mesh platform and allowed to acclimate for about 15 min/ Each animal was closely observed during a 1-min period repeated every 5 min for 1 h (12 times total). Depending on the position in which the foot was found during the scoring period, a score of 0, 1, or 2 was given. Full weight bearing of the foot (score=0) was present if the skin on the plantar surface of the paw wound was blanched or distorted by the mesh. If the foot was completely off the mesh, or one or more instances of licking or flinching was observed, a score of 2 was recorded and the licking or flinching was noted but not counted. If the plantar surface of the paw touched the mesh without blanching or distorting, a score of 1 was given. The sum of the 12 scores obtained during the 1 h session was calculated (maximum score=24) for each animal. Observations were made during hours 4 and 24. Test articles were administered orally at concentrations of 10, 30 or 100 mg/kg and ketoprofen was administered subcutaneously at a concentration of 10 mg/kg. The control group received the vehicle (sterile water). In Table 6, ‘A’ designates a cumulative pain score of ≤11, ‘B’ designates >11 and ≤16, and ‘C’ designates >16.
The results provided in Table 6 are for oral administration in rats.

COX-1, sequence (P23219 24-599): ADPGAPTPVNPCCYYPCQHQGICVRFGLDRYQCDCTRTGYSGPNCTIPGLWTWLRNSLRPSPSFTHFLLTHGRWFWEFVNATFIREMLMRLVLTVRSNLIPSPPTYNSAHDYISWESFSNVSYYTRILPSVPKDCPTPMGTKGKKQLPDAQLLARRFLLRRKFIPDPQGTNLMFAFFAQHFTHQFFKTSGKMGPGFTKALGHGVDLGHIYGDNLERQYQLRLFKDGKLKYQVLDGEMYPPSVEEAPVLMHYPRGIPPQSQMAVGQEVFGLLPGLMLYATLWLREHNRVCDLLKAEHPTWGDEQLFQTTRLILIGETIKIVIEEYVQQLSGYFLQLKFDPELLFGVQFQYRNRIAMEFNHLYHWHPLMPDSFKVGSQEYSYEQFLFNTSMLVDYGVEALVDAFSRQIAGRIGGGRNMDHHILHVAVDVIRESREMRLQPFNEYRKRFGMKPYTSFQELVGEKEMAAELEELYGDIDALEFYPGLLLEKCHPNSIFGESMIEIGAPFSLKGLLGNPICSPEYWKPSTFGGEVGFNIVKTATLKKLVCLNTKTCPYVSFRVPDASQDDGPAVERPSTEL

Row | SMILES | inhibition at 200 µM (COX-1) [%] | inhibition at 200 µM (COX-2) [%] | least preferred (drug associated) chamber residence time (adult male C57BL/6 mice) | cumulative pain score, 4 h (male Sprague-Dawley rats; 10 mg/kg) | cumulative pain score, 24 h (male Sprague-Dawley rats; 10 mg/kg) | cumulative pain score, 4 h (male Sprague-Dawley rats; 30 mg/kg) | cumulative pain score, 24 h (male Sprague-Dawley rats; 30 mg/kg) | cumulative pain score, 4 h (male Sprague-Dawley rats; 100 mg/kg) | cumulative pain score, 24 h (male Sprague-Dawley rats; 100 mg/kg)
1 | Cc1sc(C23CC(N)(C2)C3)nc1C(F)(F)F.Cl [Compound 2, 3-(5-Methyl-4-(trifluoromethyl)thiazol-2-yl)bicyclo[1.1.1]pentan-1-amine hydrochloride] | 15 | -2 | no increase |  |  |  |  |  | 
2 | Cl.NC12CC(c3nc(C(F)(F)F)cs3)(C1)C2 [Compound 1, 3-(4-(Trifluoromethyl)thiazol-2-yl)bicyclo[1.1.1]pentan-1-amine hydrochloride] |  |  |  | C (>16) | B (>11 and ≤16) | A (a cumulative pain score of ≤11) | A (a cumulative pain score of ≤11) | A (a cumulative pain score of ≤11) | A (a cumulative pain score of ≤11)
